Results taken from PubChem BioAssay AID2060357 (Molecular Pharmacology Branch, DTP, NCI, 2025).

Test system: 292921-168-R-J2-PDC spheroids with HUVEC/MSC, viability
Assay: Anticancer human tumor 292921-168-R-J2-PDC patient-derived pancreatic carcinoma cell line growth inhibition [TAK]
Conditions: for IC50: curve of first compound; for viability, T/C: stronger effect = lower value
Excerpt: Combinatorial screen of targeted agents with TAK-243 and ipatasertib in multi-cell type tumor spheroids
A high-throughput screen of multi-cell type tumor spheroids was designed to identify active combinations of targeted small molecules and TAK-243 or ipatasertib. Complex spheroids include a stromal component modeled by human endothelial cells (HUVEC) and fibroblasts modeled by human mesenchymal stem cells (MSCs). The concentration ranges selected for each drug and investigational agent were based upon clinically achievable concentrations if the clinical Cmax of the agent was known.
Compounds. The drugs and investigational agents: TAK-243 (785004), ipatasertib (767898), everolimus (733504), selumetinib (741078), bortezomib (756655), trametinib (758246), ixazomib (758254), vemurafenib (761431), dabrafenib (764134), sapanisertib (764658), alpelisib (765974), and copanlisib (816437), were obtained from the National Cancer Institute (NCI) Developmental Therapeutics Program Chemical Repository. The FDA-approved anticancer drug set is available from the NCI Developmental Therapeutics Program. […] The stock solutions were prepared in dimethyl sulfoxide (DMSO, Sigma-Aldrich, St. Louis, MO, cat. D2650) at 800-fold the tested concentration and stored at -70 degrees C prior to their use. All drugs and investigational agents were tested over a range starting from a high concentration at or near the clinical Cmax and decreasing in half-log increments. If the clinical Cmax for an agent had not been determined, the highest concentration tested was 10 microM.
NCI60 Cell Culture. NCI60 cell lines were obtained from the NCI Developmental Therapeutics Program Tumor Repository. For each lot of cells, the Repository performed Applied Biosystems AmpFLSTR Identifiler testing with PCR amplification to confirm consistency with the published Identifier STR profile for each cell line. Cells were kept in continuous culture for no more than 20 passages. The optimal seeding densities for each of the cell lines at each time point assessed were determined prior to performing the concentration response studies. Briefly, the NCI60 human tumor lines were grown as monolayers in RPMI 1640 medium supplemented with 10% FBS and 2 mmol/L L-glutamine.
An additional 2 lines were from the NCI60 cell line panel including melanomas, MALME-3M and SK-MEL-2. Pooled donor human umbilical vein endothelial cells (HUVEC, Lonza, cat. CC-2519) and human mesenchymal stem cells (hMSC, Lonza, cat. PT-2501) were purchased from Lonza (Walkersville, MD).
PDMR cell lines were grown in complete medium (DC medium): Dulbecco's modified Eagle's medium (DMEM)/F12 supplemented with 5% fetal bovine serum (FBS), 2 mM L-glutamine, 100 U/mL penicillin and 100 µg/ml streptomycin, 0.4 µg/ml hydrocortisone, 10 ng/ml epidermal growth factor (EGF) recombinant human protein, 24 µg/mL adenine, and 0.1 mg/mL primocin. During culture from frozen stock vials, PDMR cells were cultured in the same medium containing 10 µM Y-27632 (see Table 3). The PDCs were cultured in complete DMEM/F12 media without 10 microM Y-27632 dihydrochloride for at least two passages prior to the screen. The pooled donor HUVEC and hMSC were cultured in endothelial cell growth medium 2 (PromoCell, Heidelberg, Germany, cat. C-22011) and mesenchymal stem cell growth medium 2 (PromoCell, cat. C-28009), respectively. For all experiments, HUVEC and hMSC were used at passages </=5.
For the pre-screen, cell seeding densities were determined from a titration spanning the range from 5,000 to 313 cells per well. The mct-spheroids including 60% malignant cells, 25% HUVEC and 15% MSC dispensed as a mixture into U-bottom Ultra-Low Attachment 384-well plates (Corning, NY)
High-throughput Drug Combination Screening.
Prior to their inoculation into 384-well plates, malignant cells, HUVEC, and hMSC were removed from T flasks using TrypLE express (Thermo Fisher Scientific, cat. 12605036) and harvested by centrifugation for 5 min at 233 x g. […]

[1] = second compound 0.3 µM, first compound 0.0316 µM
[2] = second compound 0.3 µM, first compound 0.1 µM
[3] = second compound 0.949 µM, first compound 0.0316 µM
[4] = second compound 0.949 µM, first compound 0.1 µM
[5] = second compound 3 µM, first compound 0.0316 µM
[6] = second compound 3 µM, first compound 0.1 µM
[7] = second compound 9.49 µM, first compound 0.0316 µM
[8] = second compound 9.49 µM, first compound 0.1 µM
[9] = second compound 30 µM, first compound 0.0316 µM
[10] = second compound 30 µM, first compound 0.1 µM
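Further: spheroids exposed to drugs for seven days before readout.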

Question: Cc1nc(NC(=O)N2CCCC2C(N)=O)sc1-c1ccnc(C(C)(C)C(F)(F)F)c1 (stereo not given) + CC(C)NCC(C(=O)N1CCN(c2ncnc3c2C(C)CC3O)CC1)c1ccc(Cl)cc1 was tested. Which IC50 (second compound 0.3 µM) did it give?
Answer: The IC50 was 295 nM.

Question: And the IC50 (second compound 0.949 µM)?
Answer: The IC50 was 185 nM.

Question: And the IC50 (second compound 3 µM)?
Answer: The IC50 was 184 nM.

Question: And the IC50 (second compound 9.49 µM)?
Answer: The IC50 was 70.8 nM.

Question: What about the IC50 (second compound 30 µM) of the same compound?
Answer: The IC50 was under 31.6 nM.

Question: And the viability, T/C [1]?
Answer: Its viability, T/C is 75.5%.

Question: And the viability, T/C [2]?
Answer: Its viability, T/C is 67.2%.

Question: What about the viability, T/C (second compound 0.3 µM, first compound 0.316 µM) of the same compound?
Answer: Its viability, T/C is 47.2%.

Question: And the viability, T/C (second compound 0.3 µM, first compound 1 µM)?
Answer: The viability, T/C was 34.2%.

Question: What about the viability, T/C (second compound 0.3 µM, first compound 3.16 µM) of the same compound?
Answer: The viability, T/C was 26.2%.

Question: And the viability, T/C (second compound 0.3 µM, first compound 10 µM)?
Answer: The viability, T/C was 20%.

Question: What about the viability, T/C [3] of the same compound?
Answer: The viability, T/C was 78.5%.

Question: What about the viability, T/C [4] of the same compound?
Answer: Its viability, T/C is 58.4%.

Question: What about the viability, T/C (second compound 0.949 µM, first compound 0.316 µM) of the same compound?
Answer: Its viability, T/C is 42.8%.

Question: What about the viability, T/C (second compound 0.949 µM, first compound 1 µM) of the same compound?
Answer: Its viability, T/C is 30.5%.

Question: And the viability, T/C (second compound 0.949 µM, first compound 3.16 µM)?
Answer: The viability, T/C was 24.1%.

Question: What about the viability, T/C (second compound 0.949 µM, first compound 10 µM) of the same compound?
Answer: The viability, T/C was 19.6%.

Question: What about the viability, T/C [5] of the same compound?
Answer: The viability, T/C was 68.5%.

Question: And the viability, T/C [6]?
Answer: Its viability, T/C is 61.7%.

Question: What about the viability, T/C (second compound 3 µM, first compound 0.316 µM) of the same compound?
Answer: Its viability, T/C is 39.3%.

Question: What about the viability, T/C (second compound 3 µM, first compound 1 µM) of the same compound?
Answer: Its viability, T/C is 27.1%.

Question: What about the viability, T/C (second compound 3 µM, first compound 3.16 µM) of the same compound?
Answer: The viability, T/C was 23.4%.

Question: What about the viability, T/C (second compound 3 µM, first compound 10 µM) of the same compound?
Answer: Its viability, T/C is 15.3%.

Question: What about the viability, T/C [7] of the same compound?
Answer: Its viability, T/C is 59.8%.

Question: And the viability, T/C [8]?
Answer: The viability, T/C was 46.8%.

Question: What about the viability, T/C (second compound 9.49 µM, first compound 0.316 µM) of the same compound?
Answer: Its viability, T/C is 27.8%.

Question: And the viability, T/C (second compound 9.49 µM, first compound 1 µM)?
Answer: Its viability, T/C is 21.1%.

Question: And the viability, T/C (second compound 9.49 µM, first compound 3.16 µM)?
Answer: The viability, T/C was 17.8%.

Question: What about the viability, T/C (second compound 9.49 µM, first compound 10 µM) of the same compound?
Answer: Its viability, T/C is 12.7%.

Question: And the viability, T/C [9]?
Answer: Its viability, T/C is 41.1%.

Question: And the viability, T/C [10]?
Answer: Its viability, T/C is 33.2%.

Question: What about the viability, T/C (second compound 30 µM, first compound 0.316 µM) of the same compound?
Answer: Its viability, T/C is 23.9%.

Question: What about the viability, T/C (second compound 30 µM, first compound 1 µM) of the same compound?
Answer: The viability, T/C was 16.4%.

Question: What about the viability, T/C (second compound 30 µM, first compound 3.16 µM) of the same compound?
Answer: Its viability, T/C is 13.4%.

Question: What about the viability, T/C (second compound 30 µM, first compound 10 µM) of the same compound?
Answer: Its viability, T/C is 9.1%.

Question: Which IC50 (second compound 0.3 µM) does the source give for CC(C)n1nc(-c2ccc3oc(N)nc3c2)c2c(N)ncnc21 + CC(C)NCC(C(=O)N1CCN(c2ncnc3c2C(C)CC3O)CC1)c1ccc(Cl)cc1 here?
Answer: Its IC50 is 9.58 nM.

Question: And the IC50 (second compound 0.949 µM)?
Answer: The IC50 was 8.57 nM.

Question: And the IC50 (second compound 3 µM)?
Answer: The IC50 was 6.94 nM.

Question: And the IC50 (second compound 9.49 µM)?
Answer: The IC50 was 2.52 nM.

Question: What about the IC50 (second compound 30 µM) of the same compound?
Answer: Its IC50 is under 0.316 nM.

Question: What about the viability, T/C (second compound 0.3 µM, first compound 0.000316 µM) of the same compound?
Answer: The viability, T/C was 81%.

Question: And the viability, T/C (second compound 0.3 µM, first compound 0.001 µM)?
Answer: Its viability, T/C is 77.2%.

Question: And the viability, T/C (second compound 0.3 µM, first compound 0.00316 µM)?
Answer: Its viability, T/C is 67.4%.

Question: What about the viability, T/C (second compound 0.3 µM, first compound 0.01 µM) of the same compound?
Answer: The viability, T/C was 49.9%.

Question: What about the viability, T/C [1] of the same compound?
Answer: The viability, T/C was 35.3%.

Question: And the viability, T/C [2]?
Answer: Its viability, T/C is 32.2%.

Question: What about the viability, T/C (second compound 0.949 µM, first compound 0.000316 µM) of the same compound?
Answer: The viability, T/C was 81.6%.

Question: And the viability, T/C (second compound 0.949 µM, first compound 0.001 µM)?
Answer: Its viability, T/C is 70.9%.

Question: What about the viability, T/C (second compound 0.949 µM, first compound 0.00316 µM) of the same compound?
Answer: The viability, T/C was 63.7%.

Question: What about the viability, T/C (second compound 0.949 µM, first compound 0.01 µM) of the same compound?
Answer: The viability, T/C was 48.9%.

Question: And the viability, T/C [3]?
Answer: The viability, T/C was 35%.

Question: What about the viability, T/C [4] of the same compound?
Answer: Its viability, T/C is 32.2%.

Question: What about the viability, T/C (second compound 3 µM, first compound 0.000316 µM) of the same compound?
Answer: The viability, T/C was 73.6%.

Question: What about the viability, T/C (second compound 3 µM, first compound 0.001 µM) of the same compound?
Answer: Its viability, T/C is 73%.

Question: And the viability, T/C (second compound 3 µM, first compound 0.00316 µM)?
Answer: Its viability, T/C is 62.2%.

Question: And the viability, T/C (second compound 3 µM, first compound 0.01 µM)?
Answer: Its viability, T/C is 43.8%.

Question: What about the viability, T/C [5] of the same compound?
Answer: Its viability, T/C is 34.2%.

Question: And the viability, T/C [6]?
Answer: The viability, T/C was 29%.

Question: What about the viability, T/C (second compound 9.49 µM, first compound 0.000316 µM) of the same compound?
Answer: Its viability, T/C is 63.7%.

Question: And the viability, T/C (second compound 9.49 µM, first compound 0.001 µM)?
Answer: The viability, T/C was 57%.

Question: And the viability, T/C (second compound 9.49 µM, first compound 0.00316 µM)?
Answer: The viability, T/C was 48.3%.

Question: And the viability, T/C (second compound 9.49 µM, first compound 0.01 µM)?
Answer: The viability, T/C was 37.8%.

Question: And the viability, T/C [7]?
Answer: The viability, T/C was 27.6%.

Question: What about the viability, T/C [8] of the same compound?
Answer: Its viability, T/C is 26.3%.

Question: What about the viability, T/C (second compound 30 µM, first compound 0.000316 µM) of the same compound?
Answer: The viability, T/C was 43.4%.

Question: And the viability, T/C (second compound 30 µM, first compound 0.001 µM)?
Answer: The viability, T/C was 39.7%.

Question: What about the viability, T/C (second compound 30 µM, first compound 0.00316 µM) of the same compound?
Answer: The viability, T/C was 33.7%.

Question: What about the viability, T/C (second compound 30 µM, first compound 0.01 µM) of the same compound?
Answer: The viability, T/C was 26.4%.

Question: What about the viability, T/C [9] of the same compound?
Answer: Its viability, T/C is 23.9%.

Question: What about the viability, T/C [10] of the same compound?
Answer: Its viability, T/C is 21.7%.
